Measured values: PubChem BioAssay (NCI)
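GI50 = concentration required for 50% inhibition of growth. TGI denotes the concentration required for complete inhibition of growth.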 Where a SMILES comes first, the peptide text is derived from it. [ ]: non-standard residue; d: D form. The star is where a group is joined. Dolaproine = CO[C@@H]([C@@H]1CCCN1)[C@@H](C)C(=O)O; Dil = CC[C@H](C)[C@H](NC)[C@@H](CC(=O)O)OC; X2 = C[C@@H](N*)[C@@H](O)c1ccccc1; NMeV = CN[C@H](C(=O)O)C(C)C

Key:
Assay in all cases: NCI-60 cell line screen, 384-well format
[1] = test system: MALME-3M melanoma
[2] = test system: K-562 leukemia
[3] = test system: MDA-MB-468 breast
[4] = test system: OVCAR-3 ovarian
[5] = test system: SF-295 CNS
[6] = test system: CCRF-CEM leukemia
[7] = test system: CAKI-1 renal
[8] = test system: IGROV1 ovarian
[9] = test system: SNB-19 CNS
[10] = test system: BT-549 breast
[11] = test system: RPMI-8226 leukemia
[12] = test system: NCI-H322M lung
[13] = test system: UO-31 renal
[14] = test system: SK-MEL-2 melanoma
[15] = test system: SF-268 CNS
[16] = test system: OVCAR-4 ovarian
[17] = test system: COLO 205 colon
[18] = test system: HOP-92 NSCLC
[19] = test system: OVCAR-5 ovarian
[20] = test system: MDA-MB-435 melanoma
[21] = test system: M14 melanoma
[22] = test system: A498 renal
[23] = test system: DU-145 prostate
[24] = test system: MDA-MB-231 breast
[25] = test system: HOP-62 NSCLC
[26] = test system: RXF 393 renal
[27] = test system: T-47D breast
[28] = test system: HCT-116 colon
[29] = test system: SW-620 colon
[30] = test system: HT29 colon
[31] = test system: UACC-62 melanoma
[32] = test system: MCF7 breast
[33] = test system: SF-539 CNS
[34] = test system: SR leukemia
[35] = test system: KM12 colon
[36] = test system: SK-OV-3 ovarian
[37] = test system: SK-MEL-5 melanoma
[38] = test system: SN12C renal
[39] = test system: MOLT-4 leukemia
[40] = test system: HL-60(TB) leukemia
[41] = test system: U251 glioblastoma
[42] = test system: NCI-H522 lung
[43] = test system: ACHN renal
[44] = test system: NCI-H460 NSCLC
[45] = test system: LOX IMVI melanoma
[46] = test system: A549 NSCLC
[47] = test system: NCI/ADR-RES ovarian
[48] = test system: NCI-H226 lung
[49] = test system: HCT-15 colon
[50] = test system: OVCAR-8 ovarian
[51] = test system: UACC-257 melanoma
[52] = test system: 786-0 renal
[53] = test system: TK-10 renal
[54] = test system: NCI-H23 lung
[55] = test system: HCC-2998 colon

CC[C@H](C)[C@@H]([C@@H](CC(=O)N1CCC[C@H]1[C@H](OC)[C@@H](C)C(=O)N[C@H](C)[C@@H](O)c1ccccc1)OC)N(C)C(=O)[C@@H](NC(=O)[C@@H](NC)C(C)C)C(C)C (H-[NMeV]V[Dil][Dolaproine]-X2)
GI50 [1]: < 10 nM | TGI [1]: < 10 nM | GI50 [2]: < 10 nM | TGI [2]: < 10 nM | GI50 [3]: < 10 nM | TGI [3]: < 10 nM | GI50 [4]: < 10 nM | TGI [4]: < 10 nM | GI50 [5]: < 10 nM | TGI [5]: < 10 nM | GI50 [6]: < 10 nM | TGI [6]: < 10 nM | GI50 [7]: < 10 nM | TGI [7]: 24400 nM | GI50 [8]: < 10 nM | TGI [8]: 91.6 nM | GI50 [9]: < 10 nM | TGI [9]: < 10 nM | GI50 [10]: < 10 nM | TGI [10]: < 10 nM | GI50 [11]: < 10 nM | TGI [11]: < 10 nM | GI50 [12]: < 10 nM | TGI [12]: > 100000 nM | GI50 [13]: < 10 nM | TGI [13]: > 100000 nM | GI50 [14]: < 10 nM | TGI [14]: < 10 nM | GI50 [15]: < 10 nM | TGI [15]: < 10 nM | GI50 [16]: < 10 nM | TGI [16]: 24300 nM | GI50 [17]: < 10 nM | TGI [17]: < 10 nM | GI50 [18]: < 10 nM | TGI [18]: < 10 nM | GI50 [19]: < 10 nM | TGI [19]: > 100000 nM | GI50 [20]: < 10 nM | TGI [20]: < 10 nM | GI50 [21]: < 10 nM | TGI [21]: < 10 nM | GI50 [22]: < 10 nM | TGI [22]: 11.2 nM | GI50 [23]: < 10 nM | TGI [23]: < 10 nM | GI50 [24]: < 10 nM | TGI [24]: < 10 nM | GI50 [25]: < 10 nM | TGI [25]: 30.4 nM | GI50 [26]: < 10 nM | TGI [26]: < 10 nM | GI50 [27]: < 10 nM | TGI [27]: > 100000 nM | GI50 [28]: < 10 nM | TGI [28]: < 10 nM | GI50 [29]: < 10 nM | TGI [29]: > 100000 nM | GI50 [30]: < 10 nM | TGI [30]: < 10 nM | GI50 [31]: < 10 nM | TGI [31]: < 10 nM | GI50 [32]: < 10 nM | TGI [32]: 121 nM | GI50 [33]: < 10 nM | TGI [33]: < 10 nM | GI50 [34]: < 10 nM | TGI [34]: < 10 nM | GI50 [35]: < 10 nM | TGI [35]: < 10 nM | GI50 [36]: < 10 nM | TGI [36]: < 10 nM | GI50 [37]: < 10 nM | TGI [37]: < 10 nM | GI50 [38]: < 10 nM | TGI [38]: > 100000 nM | GI50 [39]: < 10 nM | TGI [39]: < 10 nM | GI50 [40]: < 10 nM | TGI [40]: < 10 nM | GI50 [41]: < 10 nM | TGI [41]: < 10 nM | GI50 [42]: < 10 nM | TGI [42]: < 10 nM | GI50 [43]: < 10 nM | TGI [43]: > 100000 nM | GI50 [44]: < 10 nM | TGI [44]: < 10 nM | GI50 [45]: < 10 nM | TGI [45]: < 10 nM | GI50 [46]: < 10 nM | TGI [46]: < 10 nM | GI50 [47]: 105 nM | TGI [47]: 266 nM | GI50 [48]: < 10 nM | TGI [48]: < 10 nM | GI50 [49]: < 10 nM | TGI [49]: 63.2 nM | GI50 [50]: < 10 nM | TGI [50]: < 10 nM | GI50 [51]: < 10 nM | TGI [51]: 12700 nM | GI50 [52]: < 10 nM | TGI [52]: < 10 nM | GI50 [53]: < 10 nM | TGI [53]: > 100000 nM | GI50 [54]: < 10 nM | TGI [54]: < 10 nM | GI50 [55]: < 10 nM | TGI [55]: < 10 nM
